This note sets out measurements from paper PMC8587043, “An Investigation into the Interaction between Double Hydroxide-Based Antioxidant Benzophenone Derivatives and Cyclooxygenase 2” (Molecules, 2021).

One data set concerns the target T1, COX2 (Homo sapiens, UniProt P35354).
T1 construct: purchased Sino Biological Co. (Beijing, China)
T1 sequence (P35354 18-604): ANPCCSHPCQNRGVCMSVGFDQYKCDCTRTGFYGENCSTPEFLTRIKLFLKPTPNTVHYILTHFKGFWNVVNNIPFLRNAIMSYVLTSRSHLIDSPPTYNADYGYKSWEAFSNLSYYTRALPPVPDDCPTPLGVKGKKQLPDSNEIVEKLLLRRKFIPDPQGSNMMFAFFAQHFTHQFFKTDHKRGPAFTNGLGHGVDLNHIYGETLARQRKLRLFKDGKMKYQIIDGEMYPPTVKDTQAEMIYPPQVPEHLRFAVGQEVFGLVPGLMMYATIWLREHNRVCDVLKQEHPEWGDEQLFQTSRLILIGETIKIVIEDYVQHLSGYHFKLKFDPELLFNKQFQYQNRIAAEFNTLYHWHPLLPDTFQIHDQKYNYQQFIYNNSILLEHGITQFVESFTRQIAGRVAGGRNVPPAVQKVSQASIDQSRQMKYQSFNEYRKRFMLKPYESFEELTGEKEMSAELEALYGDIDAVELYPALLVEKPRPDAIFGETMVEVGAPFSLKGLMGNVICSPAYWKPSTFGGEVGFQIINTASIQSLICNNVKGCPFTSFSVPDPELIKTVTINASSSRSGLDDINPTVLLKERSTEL
As to the kind of experiment: Three-dimensional fluorescence spectroscopy of COX2-compound systems. Type of data set: binding. The following applies: for Peak Position λex/λem, peak 2 / Relative Intensity (I), peak 2 / Relative Intensity (I), peak 1: compound 4.50 × 10^−5 mol∙L^−1, 298 K; for Relative Intensity (I), peak 2: COX2 alone 775; for Relative Intensity (I), peak 1: COX2 alone 874. From the text:
Three-dimensional fluorescence spectroscopy can reflect the microenvironment of related fluorophores. It was employed to study the structural changes of COX2 before and after binding. Peak 1 and peak 2 were maintained at 272/338 nm and 230/337 nm, respectively. […] Peak 2 reflected the fluorescence information of the polypeptide backbone structure of COX2, involving pi-to-pi* transition related to the secondary structure changes. According to Figure 7 and Table 3, both peak 1 and peak 2 of COX2 had been quenched. […] Furthermore, the fluorescence intensity of peak 1 was higher than that of peak 2 in the spectra for COX2-SC2 complex (Table 3). It implies that the fluorescence quenching of COX2 by compound SC2 on peak 2 was more evident than on peak 1. We could draw a conclusion that the interaction of compound SC2 with COX2 induced the slight opening of the polypeptides of protein, thereafter changing the conformation of COX2. […] Comparison of Figure 7a with Figure 7c also implied that there was a blue shift of 5.5 nm for peak 1, and 4 nm for peak 2. […] These changes induced the increase in hydrophobicity of COX2, decrease in collisions between COX2 molecules and water, and increase in the quantum yield of COX2. […] Taken together, these combined results implicate the ability of compounds DB2, SC2 and YB2 to bind to COX2.
The fluorescence intensity of the system was measured with a 1.0 cm quartz cell. […] DB2, SC2 or YB2 stock solutions were prepared in singleton at 1.5 × 10^−3 mol∙L^−1 in PBS containing 0.1% DMSO. 2.0 mL COX2 solution was separately titrated by continuing additions of 10 μL compounds DB2, SC2 or YB2 solution). After incubation at 298 K or 310 K, fluorescence quenching spectra were recorded in the region 325-450 nm at a scan rate of 1200 nm∙min^−1. The local environment of Tyr and Trp residues was quite sensitive at 280 nm, so the excitation wavelength was set at this wavelength. Typically, 280 nm is also used to measure the changes in protein tertiary structure. The slit widths of emission and excitation were both fixed at 10 nm. To observe spectra behaviors of Tyr and Trp groups of COX2, the wavelength interval between the excitation and emission wavelengths (Δλ) was set as 15 nm and 60 nm, respectively. Three-dimensional fluorescence spectroscopy was obtained for an excitation range of 200–300 nm and an emission range of 325–400 nm. Appropriate buffer solutions, determined under the same operation conditions, were used as blanks. Each spectrum was recorded three times.

The subject of data set [1] is EA.hy926 cells. As to the kind of experiment: LDH, MDA, ROS and SOD in H2O2-treated cells. It counts as cell-based, human. The following applies: pretreated 24 h, then 400 μmol·L^−1 H2O2 for 4 h; p < 0.01. The procedure: In the course of oxidative stress, the balance between oxidation and antioxidant activity of cells was disturbed, and the levels of ROS, malondialdehyde (MDA) and lactate dehydrogenase (LDH) increased, while the activity of superoxide dismutase (SOD) enzyme in cells decreased.
Cells were dispensed into 24-well plate wells for 24 h and pretreated with target compound SC2 (5, 0.1, 0.05 µmol·L^−1) or the positive controls (10 µmol·L^−1) for 24 h, followed by exposure to 400 μmol·L^−1 H2O2 for 4 h. The cells were collected and the activities of LDH, MDA, SOD and ROS were determined according to the kits’ instructions.

Data set [2] has as its system EA.hy926 cells. As to the kind of experiment: Cytotoxicity of compound SC2, MTT assay. Type of data set: cell-based, human. The procedure:
The cytotoxicity of compound SC2 on EA.hy926 cells was detected by 3-(4,5-dimethyl-2-thiazolyl)-2,5-diphenyl-2-H-tetrazolium bromide (MTT) assay.
Compound SC2 stock solutions were prepared in DMSO. The stock solutions were diluted with FBS free DMEM to different target concentrations (DMSO concentrations ≤ 0.5% v:v). Cells (100 μL, 2 × 10^5 cells∙mL^−1) were seeded on 96-well plates and cultured for 24 h. The medium was then replaced with fresh media containing H2O2 with different concentrations (0, 100, 200, 300, 400, 500, and 600 μmol·L^−1 in FBS free DMEM) and compound SC2 (50, 40, 30, 20, 10 µmol·L^−1), which were transferred to the incubator and cultured for additional time (2, 4, and 6 h). The medium was then replaced with 100 μL of FBS free DMEM and MTT (10 μL, 5 mg·mL^−1 in PBS) and after 4 h the medium was replaced with DMSO (100 μL). A microplate reader (SpectraMaxPlus384, Molecular Devices, United States) was used to record the absorbance at 490 nm for each well of the plates. Cell viability was measured via MTT assay. Survival rate (%) = (Asample group/Acontrol group) × 100%.

Consider `CCCCc1ccc(C(=O)c2c(Br)cc(O)c(O)c2O)cc1` [DB2], for which, on COX2, the “Peak Position λex/λem, peak 2” value was 236/337; the “Relative Intensity (I), peak 2” value is given as 153; the “Relative Intensity (I), peak 1” value stood at 665.
Turning to `CC(C)(C)c1ccc(C(=O)c2c(Cl)cc(O)c(O)c2O)cc1` [SC2], in the data set with EA.hy926 cells [1], the “LDH level compared with model group” value was “significantly reduced”, the “MDA level compared with model group” value was “significantly reduced”, the “ROS level compared with model group” value is on record as “significantly reduced” and the “SOD activity compared with model group” value was “significantly increased”. For the same compound, the “cell survival rate compared with control group” value with EA.hy926 cells [2] (concentrations less than 30 µmol·L^−1) is listed as “not significantly different”. For the same compound, the “effect on cells at concentration used in cell-based experiments” value with EA.hy926 cells [2] (less than 10 µmol·L^−1) is reported as “harmless to cells”. For the same compound, on COX2 (COX2-compound vs COX2 alone), the “blue shift of peak 1” value stood at 5.5 nm and the “blue shift of peak 2” value is given as 4 nm. In addition, on COX2, the “Peak Position λex/λem, peak 2” value was 236/333; the “Relative Intensity (I), peak 2” value came out at 82.9; the “Relative Intensity (I), peak 1” value amounted to 395.
As to `CC(C)Cc1ccc(C(=O)c2c(Br)cc(O)c(O)c2O)cc1` [YB2], on COX2, the “Peak Position λex/λem, peak 2” value is 236/336; the “Relative Intensity (I), peak 2” value was 103; the “Relative Intensity (I), peak 1” value was found to be 472.
